The target of series [1] is T1, Flt-3 (Homo sapiens, UniProt P36888).
T1 construct: His tag; purchased Upstate Inc. 14-500
T1 sequence (P36888 564-993 limits assumed): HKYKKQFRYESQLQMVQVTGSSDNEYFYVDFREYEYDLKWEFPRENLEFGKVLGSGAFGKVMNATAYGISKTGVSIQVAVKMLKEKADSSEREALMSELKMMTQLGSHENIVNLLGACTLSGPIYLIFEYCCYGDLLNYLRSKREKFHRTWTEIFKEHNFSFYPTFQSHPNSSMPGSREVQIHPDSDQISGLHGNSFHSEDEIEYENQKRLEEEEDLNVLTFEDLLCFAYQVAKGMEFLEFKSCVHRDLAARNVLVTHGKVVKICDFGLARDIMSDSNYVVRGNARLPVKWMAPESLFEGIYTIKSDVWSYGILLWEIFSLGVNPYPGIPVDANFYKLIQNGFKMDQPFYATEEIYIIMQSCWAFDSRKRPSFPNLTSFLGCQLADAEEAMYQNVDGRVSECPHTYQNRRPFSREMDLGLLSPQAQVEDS
As to the kind of experiment: Flt-3 inhibitory activity, time-resolved fluoroimmunoassay. Format: biochemical. Particulars: 10 μmol/L test compound. How it is done: Flt-3 inhibitory activity was determined by a method described below.
Biotinylated polyglutamic acid-tyrosine peptide (Nihon Schering K.K., Catalogue No. 61GT0BAA) used as a substrate was immobilized on a 96-well plate (FIA-PLATE BLACK 96 well FALT-BOTTOM HIGH BINDING, Greiner Bio-one Co., Ltd., Catalogue No. 655077) coated with NeutroAvidin (Pierce, Catalogue No. 31000) and was then blocked with 0.25% gelatin to yield a plate for the determination of kinase reaction. A solution containing, at final concentrations, 8 μg/L His-tagged protein-fused Flt-3 (Upstate Inc., Catalogue No. 14-500), 20 mmol/L Tris-Cl (pH 7.5), 0.04% 2-mercaptoethanol, 0.04 mmol/L Na3VO4, 20 mmol/L MgCl2, 5 mmol/L MnCl2, 10 μmol/L ATP, 0.1% BSA, 0.1% DMSO, and […] test compound was prepared. Subsequently, 50 μL of the solution was placed in each of the wells of the plate for the determination of kinase reaction, followed by enzymatic reaction at 24° C. for 60 minutes. The plate was washed with TBS-T [10 mmol/L Tris-Cl (pH 7.5), 150 mmol/L NaCl, and 0.05% Tween 20 (Bio-Rad Laboratories Inc., Catalogue No. 170-6531)] four times, and allowed to react with europium-labeled anti-phosphotyrosine antibody (PerkinElmer Inc. Catalogue No. AD0160) at room temperature for 60 minutes. The plate was further washed with TBS-T four times. Subsequently, time-resolved fluoroimmunoassay was performed (excitation wavelength: 340 nm, measuring wavelength: 615 nm). The relative activity (%) of a well to which the enzyme and the test compound were added was calculated using the value of a well to which the test compound was not added being 100% and the value of a well to which the enzyme and the test compound were not added being 0%. The Flt-3 inhibitory activity (%) of the test compound was determined by subtracting the relative activity (%) from 100.

The test system of series [2] is HCT116 cells. In words: Evaluation of Aurora inhibitory activity by analysis of nuclear morphology (enlarged lobed nuclei). Format: cell-based, human. Particulars: concentration in the range of 0.1 to 1 μmol/L, 17 hours contact; optimal concentration different in each compound. How it is done: 281 (2003)]. Consequently, enlarged lobed nuclei-inducibility of test compounds for HCT116 cells was evaluated. McCoy's 5A culture medium (GIBCO, Catalogue No. 16600-082) containing 10% bovine fetus serum (GIBCO, Catalogue No. 10099-141) was used for the cultivation of the cells. HCT116 cells were inoculated and, 24 hours later, each test compound was added thereto.

Series [3] has as its target T2, human FGFR3 (Homo sapiens, UniProt P22607).
T2 construct: the intracellular domain (448-759 amino acids) of human FGFR3; made in house; host or cells: insect cells (baculovirus)
As to the kind of experiment: Fibroblast growth factor receptor 3 (FGFR3) inhibitory activity, time-resolved fluoroimmunoassay. Format: biochemical. The note with it: 10 μmol/L test compound. How it is done:
In order to determine FGFR3 inhibitory activity, the following method was employed. FGFR3 was prepared by allowing baculovirus that expresses a protein in which glutathione S-transferase (GST) was fused to the N-terminal of the intracellular domain (448-759 amino acids) of human FGFR3 to infect insect cells. Biotinylated polyglutamic acid-tyrosine peptide (Nihon Schering K.K., Catalogue No. 61GT0BAA) used as a substrate was immobilized on a 96-well plate coated with NeutroAvidin (Pierce, Catalogue No. 31000) and was then blocked with 0.25% gelatin to yield a plate for the determination of kinase reaction A solution containing, at final concentrations, 8 μg/L GST-fused FGFR3 protein, 20 mmol/L Tris-Cl (pH 7.5), 0.04% 2-mercaptoethanol, 0.04 mmol/L Na3VO4, 20 mmol/L MgCl2, 5 mmol/L MnCl2, 10 mmol/L ATP, 0.1% bovine serum albumin (BSA; Sigma Corporation, Catalogue No. A4503), 0.1% dimethyl sulfoxide (DMSO), and 10 μmol/L test compound was prepared. Subsequently, 50 μL of the solution was placed in each of the wells of the plate for the determination of kinase reaction, followed by enzymatic reaction at 24° C. for 60 minutes. The plate was washed with TBS-T [10 mM Tris-Cl (pH 7.5), 150 mmol/L NaCl, and 0.05% Tween 20 (Bio-Rad Laboratories Inc., Catalogue No. 170-6531)] four times, and allowed to react with europium-labeled anti-phosphotyrosine antibody (PerkinElmer Inc. Catalogue No. AD0160) at room temperature for 60 minutes. The plate was further washed with TBS-T four times. Subsequently, DELFIA. Enhancement Solution (PerkinElmer Inc. Catalogue No. 1244-105) was added to the plate, and time-resolved fluoroimmunoassay was performed (excitation wavelength: 340 nm, measuring wavelength: 615 nm). The relative activity (%) of a well in which the test compound was added was calculated using the value of a well containing the enzyme and 0.1% DMSO being 100% and the value of a well not containing the enzyme being 0%. The FGFR3 inhibitory activity (%) of the test compound was determined by subtracting the relative activity (%) from 100.

Series [4] deals with Aurora. In words: Aurora inhibitory activity using Western blotting method (phosphorylation of histone H3 Ser10). Format: cell-based, human. Particulars: 10 μmol/L, 30 minutes, HCT116 cells accumulated in M phase with Nocodazole. From the text:
It is known that Aurora phosphorylates Ser10 of histone H3 in the G2/M phase during the cell cycle [Molecular and Cellular Biology, Vol. 22, p. 874 (2002)]. Consequently, the inhibition of phosphorylation of histone H3 Ser10 in cells was detected by a Western blotting method using human colon cancer cell line HCT116 cells accumulated in the M phase. McCoy's 5A culture medium (GIBCO, Catalogue No. 16600-082) containing 10% bovine fetus serum (GIBCO, Catalogue No. 10099-141) was used for the cultivation of the cells. The HCT116 cells were inoculated and then treated with Nocodazole (Sigma Corporation, Catalogue No. M-1404) so that the cell cycle was accumulated to the M phase. A test compound (final concentration: 10 μmol/L) was added thereto, and the cells were incubated at 37° C. for 30 minutes. The cells were then recovered and washed with a phosphate buffered saline (PBS) once. The cells were suspended in a cell-solubilizing solution (50 mmol/L 2-[4-(2-hydroxyethyl)-1-piperazinyl]ethanesulfonic acid (HEPES) (pH 7.4), 150 mmol/L NaCl, 1 mmol/L ethylenediamine-N,N,N′,N′-tetraacetic acid disodium salt dihydrate (EDTA), 2.5 mmol/L ethylene glycol bis(2-aminoethylether)-N,N,N′,N′-tetraacetic acid (EGTA), 0.1% Tween-20 (Bio-Rad Laboratories Inc., Catalogue No. 170-6531), 10% β-glycerophosphate, 1 mmol/L NaF, 0.1 mmol/L Na3VO4, 1 mmol/L Pefabloc SC (Roche Diagnostics K.K., Catalogue No. 1 429 868), and Complete EDTA-free (Roche Diagnostics K.K., Catalogue No. 1 873 580)}, and the suspension was frozen and thawed. Subsequently, the supernatant obtained by centrifugal separation was used as a cell extraction solution. SDS-PAGE was performed using a 12.5% polyacrylamide gel under the condition that the amount of protein per sample was 30 μg in accordance with the method used by Laemmli et al. The protein was transferred onto a PVDF membrane (Millipore Corporation, Catalogue No. IPVH304F0) by a semi-dry method. The membrane was allowed to react with anti-phosphorylated histone H3 Ser10 antibody (Upstate Inc., Catalogue No. 06-570) used as a primary antibody, and an HRP-labeled anti-rabbit IgG antibody (Amersham biosciences, Catalogue No. NA934V) used as a secondary antibody. Subsequently, […] was detected using a SuperSignal West Pico chemiluminescence substrate (Pierce, Catalogue No. 34077).
Background: A western blot detects proteins with antibodies after separation by electrophoresis.

The subject of series [5] is leukemia-transplant mice. The note with it: drugs that act on Flt-3; cited from earlier work.
The conditions of series [6]: several evaluation models; drugs reported to act on FGFR; cited from earlier work.

Consider 14 molecules from US7745641B2, “Nitrogen-containing heterocyclic compound” (Kyowa Hakko Kirin Co., Ltd., priority 2005, dated 2010).

T2 sequence (P22607 448-759): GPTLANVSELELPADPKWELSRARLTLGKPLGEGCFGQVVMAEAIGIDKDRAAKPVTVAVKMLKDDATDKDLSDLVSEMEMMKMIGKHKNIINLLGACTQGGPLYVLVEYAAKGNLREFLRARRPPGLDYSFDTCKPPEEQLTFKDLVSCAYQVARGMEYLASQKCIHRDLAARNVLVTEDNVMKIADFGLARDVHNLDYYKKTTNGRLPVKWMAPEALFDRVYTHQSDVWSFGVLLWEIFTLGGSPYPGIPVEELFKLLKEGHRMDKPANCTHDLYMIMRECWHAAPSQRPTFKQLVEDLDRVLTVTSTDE

`COCCN(C)Cc1ccc2[nH]c(-c3cc(OC)c(OS(C)(=O)=O)c4c3C(=O)NC4)cc2c1` [Compound 455, 4-Methanesulfonyloxy-5-methoxy-7-{1H-5-[N-(2-methoxyethyl)methylaminomethyl]indol-2-yl}isoindolinone]: the melting point – broadly, the temperature of the solid-liquid transition – is 197 to 199 °C. Also, the inhibition (usually the relative decrease from the control value, in per cent) at 10 µM in series [1] was not below 50%. For the same molecule, the “ability of inducing enlarged lobed nuclei for HCT116 cells” value (shortened to “ability”) in series [2] is listed as “show ability of inducing enlarged lobed nuclei”. In series [3], this molecule returned an inhibition at 10 µM not below 50%. Further, the “suppression of the phosphorylation of histone H3 Ser10 in HCT116 cells” value (shortened to “suppression”) in series [4] is reported as “almost completely suppressed”.
`CCN(CC)CCNC(=O)c1c(C)[nH]c(/C=C2\C(=O)Nc3ccc(F)cc32)c1C` [SU11248]: the antitumor activity result in series [5] was “exhibit an antitumor activity”.
Regarding `COc1cc2c(N3CCN(C(=O)Nc4ccc(OC(C)C)cc4)CC3)ncnc2cc1OCCCN1CCCCC1` [CT53518], the antitumor activity entry in series [5] is reported as “exhibit an antitumor activity”.
With `Cc1c[nH]c(/C=C2\C(=O)Nc3ccccc32)c1CCC(=O)O` [SU5402], the antitumor activity result in series [6] was “exhibit an antitumor activity”.
`COc1cc(-c2cc3cc(CN(C)C)ccc3[nH]2)c2c(c1OS(C)(=O)=O)CNC2=O` [Compound 362, 4-Methanesulfonyloxy-5-methoxy-7-[1H-5-(dimethylaminomethyl)indol-2-yl]isoindolinone] came in with a melting point of 232 to 234 °C. The molecule further gave an inhibition at 10 µM in series [1] not below 50%. Moreover, in series [2], the “ability” value is reported as “show ability of inducing enlarged lobed nuclei”. The same molecule returned an inhibition at 10 µM in series [3] not below 50%. Besides, the “suppression” value in series [4] was “almost completely suppressed”.
Regarding BIBF1000, the antitumor activity entry in series [6] is “exhibit an antitumor activity”.
`COCCNCc1ccc2[nH]c(-c3cc(OC)c(OS(C)(=O)=O)c4c3C(=O)NC4)cc2c1` [Compound 374, 4-Methanesulfonyloxy-5-methoxy-7-[1H-5-(2-methoxyethylaminomethyl)indol-2-yl]isoindolinone] had a melting point of 188 to 190 °C. This molecule had an inhibition at 10 µM in series [1] not below 50%. The “ability” value in series [2] is reported as “show ability of inducing enlarged lobed nuclei”. Besides, in series [3], the inhibition at 10 µM is not below 50%. In addition, the “suppression” value in series [4] is “almost completely suppressed”.
`CN(C)CCN1CCN(C(=O)c2ccc3[nH]c(-c4ccc(Cl)c5c4C(=O)NC5)cc3c2)CC1` [Compound 112, 4-Chloro-7-{1H-5-[4-(2-dimethylaminoethyl)piperazin-1-ylcarbonyl]indol-2-yl}isoindolinone]: the melting point fell in the range of 271 to 272 °C.
With `CO[C@@H]1[C@H](N(C)C(=O)c2ccccc2)C[C@H]2O[C@]1(C)n1c3ccccc3c3c4c(c5c6ccccc6n2c5c31)C(=O)NC4` [PKC412], the antitumor activity result in series [6] and in series [5] was “exhibit an antitumor activity” each time.
For `COc1cc(-c2cc3cc(CNC4CCCCC4)ccc3[nH]2)c2c(c1OS(C)(=O)=O)CNC2=O` [Compound 365, 4-Methanesulfonyloxy-5-methoxy-7-[1H-5-(cyclohexylaminomethyl)indol-2-yl]isoindolinone], the melting point was in the range of 196 to 199 °C.
Regarding `C[C@]12O[C@H](C[C@]1(O)CO)n1c3ccccc3c3c4c(c5c6ccccc6n2c5c31)CNC4=O` [CEP-701], in series [5], the antitumor activity entry is recorded as “exhibit an antitumor activity”.
`CN1CCN(c2ccc3nc(-c4c(N)c5c(F)cccc5[nH]c4=O)[nH]c3c2)CC1` [CHIR-258]: the antitumor activity result in series [6] and in series [5] was “exhibit an antitumor activity” in each case.
Regarding `O=C(NCc1ccccc1)c1ccc2[nH]c(-c3ccc(Cl)c4c3C(=O)NC4)cc2c1` [Compound 57, 4-Chloro-7-[1H-5-(benzylaminocarbonyl)indol-2-yl]isoindolinone], the melting point was determined as 246 °C.
Turning to `CCN(CC)CCCCNc1ncc2cc(-c3cc(OC)cc(OC)c3)c(NC(=O)NC(C)(C)C)nc2n1` [PD173074], the antitumor activity result in series [6] is listed as “exhibit an antitumor activity”.
